Data on 2 compounds can be found in patent US9604960B2, “Aryl, heteroaryl, and heterocycle substituted tetrahydroisoquinolines and use thereof” (Albany Molecular Research, Inc., priority 2009, dated 2017).

One test has as its target hDAT (Homo sapiens (Human), UniProt Q01959). As to the kind of experiment: DAT radioligand binding assay ([125I]RTI-55). As to conditions: (+)-enantiomers; membranes of HEK-293 cells expressing hDAT. As to the method: Recombinant HEK-293 cells expressing either the hSERT, hDAT, or hNET proteins were harvested from T-175 flasks as follows. The medium was removed from the flasks and the cells rinsed with HBSS without Ca and without Mg. The cells were then incubated for 5-10 minutes in 10 mM Tris-Cl, pH 7.5, 5 mM EDTA before the cells were lifted with a combination of pipetting and scraping, as needed. The cell suspension was collected into centrifuge bottles and homogenized for 30 seconds with a Polytron homogenizer. The suspension was centrifuged for 30 minutes at 32,000×g, 4° C. The supernatant was decanted and the pellet resuspended and homogenized in 50 mM Tris-Cl, pH 7.5, 1 mM EDTA for 10 seconds. […]
Compounds were dissolved in 100% DMSO at a concentration 100 times the desired highest assay concentration, serially diluted 1:3 in 100% DMSO, and 0.4 μl/well of each solution was dispensed to a Nunc polypropylene, round bottom, 384-well plate. […] The plates were air-dried overnight, 12 μl/well of MicroScint scintillation fluid added, and the plates counted in a Trilux.
The raw data was normalized to percent inhibition using control wells defining 0% (DMSO only) and 100% (selective inhibitor) inhibition which were run on each plate. […] The radioligand concentration chosen for each assay corresponds to the Kd concentration determined through saturation binding analysis for each assay.

A further test addresses hSERT (Homo sapiens (Human), UniProt P31645). As to the kind of experiment: SERT radioligand binding assay ([125I]RTI-55). Particulars: (+)-enantiomers; membranes of HEK-293 cells expressing hSERT. As to the method:
The medium was removed from the flasks and the cells rinsed with HBSS without Ca and without Mg. The cells were then incubated for 5-10 minutes in 10 mM Tris-Cl, pH 7.5, 5 mM EDTA before the cells were lifted with a combination of pipetting and scraping, as needed. The cell suspension was collected into centrifuge bottles and homogenized for 30 seconds with a Polytron homogenizer. The suspension was centrifuged for 30 minutes at 32,000×g, 4° C. The supernatant was decanted and the pellet resuspended and homogenized in 50 mM Tris-Cl, pH 7.5, 1 mM EDTA for 10 seconds. The suspension was then centrifuged again for 30 minutes at 32,000×g, 4° C. The supernatant was decanted and the pellet resuspended in 50 mM Tris-Cl, pH 7.5, 1 mM EDTA and briefly homogenized. A Bradford assay (Bio-rad) was performed and the membrane preparation diluted to 2 mg/ml with 50 mM Tris-Cl, pH 7.5, 1 mM EDTA. Aliquots were prepared, and then frozen and stored at −80° C.
Compounds were dissolved in 100% DMSO at a concentration 100 times the desired highest assay concentration, serially diluted 1:3 in 100% DMSO, and 0.4 μl/well of each solution was dispensed to a Nunc polypropylene, round bottom, 384-well plate. […] The plates were air-dried overnight, 12 μl/well of MicroScint scintillation fluid added, and the plates counted in a Trilux. […]

For a further test, the system named is Male Swiss Webster mice. Nature of the test: Mouse tail suspension assay. Type of test: in vivo. As to conditions: acute administration, immobility. As to the method: Male Swiss Webster mice were housed 3-4 per cage in rooms maintained at a constant temperature (21-23° C.) and humidity (50±10%) on a 12-hour light/dark cycle. Animals had ad libitum access to water and food throughout studies. On the day of testing, they were brought into the testing room and allowed to acclimate for one hour. To begin testing, the tail was attached to a piece of tape which is then attached to a hook on the ceiling of a sound-attenuated chamber. Immobility was automatically recorded using the Med Associates software. Compounds were administered acutely at a fixed pretreatment interval before session.

hDAT, sequence (Q01959 whole entry): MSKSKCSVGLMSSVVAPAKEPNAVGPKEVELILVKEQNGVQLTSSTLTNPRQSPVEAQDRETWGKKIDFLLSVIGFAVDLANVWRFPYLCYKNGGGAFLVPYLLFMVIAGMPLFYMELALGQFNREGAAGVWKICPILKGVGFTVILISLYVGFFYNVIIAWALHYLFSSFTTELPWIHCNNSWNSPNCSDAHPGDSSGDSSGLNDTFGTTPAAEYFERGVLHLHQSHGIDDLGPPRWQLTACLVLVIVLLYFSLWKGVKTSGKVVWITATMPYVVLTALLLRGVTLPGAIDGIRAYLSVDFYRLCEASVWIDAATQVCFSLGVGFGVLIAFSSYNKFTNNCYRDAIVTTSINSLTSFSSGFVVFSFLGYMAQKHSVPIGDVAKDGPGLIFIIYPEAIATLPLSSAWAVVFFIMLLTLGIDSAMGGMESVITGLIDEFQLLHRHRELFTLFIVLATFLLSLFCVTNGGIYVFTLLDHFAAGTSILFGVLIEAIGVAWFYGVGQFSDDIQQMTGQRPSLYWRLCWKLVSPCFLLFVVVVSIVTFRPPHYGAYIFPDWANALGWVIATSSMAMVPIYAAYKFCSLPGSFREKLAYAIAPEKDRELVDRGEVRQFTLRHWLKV
hSERT, sequence (P31645 whole entry): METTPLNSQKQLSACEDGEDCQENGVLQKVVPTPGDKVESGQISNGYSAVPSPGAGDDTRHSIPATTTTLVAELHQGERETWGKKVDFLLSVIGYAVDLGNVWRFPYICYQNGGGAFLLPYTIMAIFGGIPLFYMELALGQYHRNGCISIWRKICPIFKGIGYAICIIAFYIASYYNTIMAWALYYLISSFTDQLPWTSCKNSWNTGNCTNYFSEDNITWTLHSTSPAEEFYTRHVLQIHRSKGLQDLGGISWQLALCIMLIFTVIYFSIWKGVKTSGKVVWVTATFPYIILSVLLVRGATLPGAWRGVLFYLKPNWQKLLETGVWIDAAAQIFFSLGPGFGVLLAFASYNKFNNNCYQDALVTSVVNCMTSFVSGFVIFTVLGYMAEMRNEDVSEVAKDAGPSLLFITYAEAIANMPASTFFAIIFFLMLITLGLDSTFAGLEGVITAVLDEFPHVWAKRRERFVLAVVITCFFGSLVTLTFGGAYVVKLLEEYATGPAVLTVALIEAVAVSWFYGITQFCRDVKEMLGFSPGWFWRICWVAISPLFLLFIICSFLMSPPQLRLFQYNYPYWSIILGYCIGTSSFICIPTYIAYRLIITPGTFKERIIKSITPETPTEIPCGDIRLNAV

For `CC1(C)NCC(c2ccc(Cl)c(Cl)c2)c2ccc(-c3ccc(C(F)(F)F)nn3)cc21` (single isomer, unassigned) [Example 10, 4-(3,4-dichlorophenyl)-7-(6-(trifluoromethyl)pyridazin-3-yl)-1,1-dimethyl-1,2,3,4-tetrahydroisoquinoline], the 50% inhibitory concentration (IC50) amounted to 0.028 µM at hDAT and 0.026 µM at hSERT.

For `Clc1ccc(C2CNCc3cc(-c4ccc5ncnn5c4)ccc32)cc1Cl` (stereo not drawn) [Example 36, 7-([1,2,4]triazolo[1,5-a]pyridin-6-yl)-4-(3,4-dichlorophenyl)-1,2,3,4-tetrahydroisoquinoline], the “minimum effective dose in the mouse tail suspension study” value in the test on Male Swiss Webster mice worked out at 10 mg/kg.
